Data: patent US7799775B2, “Pyrimidine derivatives” (ASKA Pharmaceutical Co., Ltd., priority 2004, dated 2010)
Structures can show the parent of a compound that is named as a salt.

Legend:
[1] = target: T1, human 5-HT1A receptor (Homo sapiens, UniProt P08908); test: Affinity measurement of the compounds to human 5-HT1A receptor (in vitro), [3H]8-OH-DPAT binding; details: test compound 100 nmols/L, [3H]8-OH-DPAT 0.25 nmols/L, CHO cell membrane expressing human 5-HT1A receptor; for inhibition at 0.1 µM: read-out: Percent Inhibition (%) on Each Receptor's Binding at 10^−7M, 5-HT1A
T1 construct: purchased Packard Bioscience; host or cells: CHO cells (membrane preparation)
T1 sequence (P08908 1-422): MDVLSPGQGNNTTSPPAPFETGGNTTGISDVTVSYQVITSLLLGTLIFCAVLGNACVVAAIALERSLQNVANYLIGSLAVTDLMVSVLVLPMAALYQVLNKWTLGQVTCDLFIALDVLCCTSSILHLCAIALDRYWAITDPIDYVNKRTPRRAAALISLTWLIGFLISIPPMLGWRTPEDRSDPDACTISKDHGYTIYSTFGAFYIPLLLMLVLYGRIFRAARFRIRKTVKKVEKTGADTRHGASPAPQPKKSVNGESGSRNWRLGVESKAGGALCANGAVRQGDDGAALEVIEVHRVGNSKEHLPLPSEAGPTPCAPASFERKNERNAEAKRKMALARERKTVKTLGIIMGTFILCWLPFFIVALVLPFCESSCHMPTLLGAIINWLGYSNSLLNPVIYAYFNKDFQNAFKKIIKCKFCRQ
Protocol: (1) Affinity Measurement of the Compounds to Human 5-HT1A Receptor (in Vitro)
CHO cell membrane sample in which human 5-HT1A receptor was expressed (purchased from Packard Bioscience) 0.25 mL (about 50 units) was added to 24.75 mL of incubation buffer solution A (an aqueous solution of a mixture of 50 mmols/L of Tris-hydrochloric acid, 10 mmols/L of magnesium sulfate, 0.5 mmols/L of EDTA and 0.1% ascorbic acid, whose pH was adjusted to 7.4 at 27° C. with 1N-aqueous sodium hydroxide solution), and labeled as membrane sample suspension A. Separately, each test compound was made into 270 μmols/L DMSO solution and diluted to a prescribed concentration with the incubation buffer solution A, to provide a compound solution.
A piece of polypropylene tube was charged with 20 μL of [^3H]8-OH-DPAT (8-hydroxy-2-(di-n-propylamino)tetralin; purchased from Daiichi Pure Chemicals Co., Ltd.) (The concentration of the [^3H]8-OH-DPAT had been advancedly adjusted to render its concentration in the reaction mixture to 0.25 nmols/L) and 20 μL of one of the compound solutions. Further 500 μL of the membrane sample suspension A was added into the tube, followed by 60 minutes' incubation at 27° C. The reaction was terminated by rapid filtration of the reaction mixture through GF/C filter which had been advancedly immersed in a solution formed by adding to the incubation buffer solution A polyethyleneimine to a concentration of 0.3%, using Brandel cell harvester. Then the filter was washed with about 5 mL of 50 mmols/L of Tris-hydrochloric acid which had been cooled to 4° C. The filter was once again washed after similar operation.
(§1) Residual radioactivity on the filter was measured with liquid scintillation counter (Aloka Co., LSC-5100). Percent inhibition (%) of each test compound to binding of [^3H]8-OH-DPAT to 5-HT1A receptor at a concentration of 0.25 nmols/L, i.e., affinity of each test compound to 5-HT1A receptor, can be calculated according to the following expression. The ratio of non-specific binding was calculated by measuring the radioactivity in case of using 8-OH-DPAT at a concentration of 10 μmols/L, with which value the measured value of each test compound was compensated.
(§2) Affinity of each test compound to 5-HT1A receptor and 5-HT3 receptor at a concentration of 100 nmols/L were as shown in the following Tables A-1 and A-2. BRL-43694 and tropisetron (ICS 205-930), which were used in measuring affinity of those compounds to 5-HT3 receptor, have the following structures: […]

[2] = target: T2, human 5-HT3 receptor (Homo sapiens, UniProt P46098); test: Measurement of affinity to human 5-HT3 receptor (in vitro), [3H]BRL-43694 binding; details: test compound 100 nmols/L, [3H]BRL-43694 0.5 nmols/L, HEK-293 cell membrane expressing human 5-HT3 receptor; for inhibition at 0.1 µM: read-out: Percent Inhibition (%) on Each Receptor's Binding at 10^−7M, 5-HT3
T2 construct: purchased BIOLINKS K.K; host or cells: HEK-293 cells (membrane preparation)
T2 sequence (P46098 24-478): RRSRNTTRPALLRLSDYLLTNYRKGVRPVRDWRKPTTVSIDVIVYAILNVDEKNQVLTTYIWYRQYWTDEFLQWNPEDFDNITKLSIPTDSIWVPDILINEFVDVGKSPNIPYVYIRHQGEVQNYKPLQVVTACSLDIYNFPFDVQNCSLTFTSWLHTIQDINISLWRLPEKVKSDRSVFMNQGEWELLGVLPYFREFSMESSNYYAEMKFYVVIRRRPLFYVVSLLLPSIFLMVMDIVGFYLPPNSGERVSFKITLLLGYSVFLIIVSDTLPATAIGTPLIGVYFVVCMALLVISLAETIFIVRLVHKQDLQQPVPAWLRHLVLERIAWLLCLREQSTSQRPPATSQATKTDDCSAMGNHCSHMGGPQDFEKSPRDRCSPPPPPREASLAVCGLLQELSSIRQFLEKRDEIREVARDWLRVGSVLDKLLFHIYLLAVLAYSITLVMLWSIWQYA
Protocol: (2) Measurement of Affinity of Each Test Compound to Human 5-HT3 Receptor (in Vitro):
HEK-293 cell membrane sample in which human 5-HT3 receptor was expressed (purchased from BIOLINKS K.K.) 0.05 mL (about 50 microassay) was added to 24.95 mL of incubation buffer solution B (an aqueous solution of a mixture of 50 mmols/L of Tris-hydrochloric acid, 5 mmols/L of magnesium chloride and 1 mmol/L of EDTA, whose pH was adjusted to 7.5 at 25° C. with 1N-aqueous sodium hydroxide solution) and homogenized, to provide a membrane sample suspension B. Separately, each test compound was made into 270 μmols/L of DMSO solution and diluted to a prescribed concentration with the incubation buffer solution B to provide a compound solution.
A piece of polypropylene tube was charged with 20 μL of [^3H]BRL-43694 (purchased from Daiichi Pure Chemicals Co., Ltd.) (The concentration of [^3H]BRL-43694 had been advancedly adjusted to render its concentration in the reaction mixture to 0.5 nmols/L.) and 20 μL of one of the compound solutions. Further 500 μL of the membrane sample suspension B was added into the tube, followed by 60 minutes' incubation at 25° C. The reaction was terminated by rapid filtration of the reaction mixture through GF/B filter which had been advancedly immersed in a solution formed by adding to the incubation buffer solution B polyethyleneimine to a concentration of 0.5%, using Brandel cell harvester. Then the filter was washed with about 5 mL of 50 mmols/L of Tris-hydrochloric acid which had been cooled to 4° C. The filter was once again washed after similar operation.
as §1, with “(ALOKA CO., LTD.” for “(Aloka Co.,”, “[^3H]BRL-43694” for “[^3H]8-OH-DPAT”, “5-HT3” for “5-HT1A”, “0.5” for “0.25”, “tropisetron: (ICS 205-930)” for “8-OH-DPAT”
as §2

inhibition at 0.1 µM [1] [%] | inhibition at 0.1 µM [2] [%] | Percent Inhibition (%) on Each Receptor's Binding at 10^−7M, 5-HT1A [1] [%] | Percent Inhibition (%) on Each Receptor's Binding at 10^−7M, 5-HT3 [2] [%] | SMILES
87 | 90.2 | – | – | Cn1c(SCCCN2CCN(c3ccc4ccccc4n3)CC2)nc2c(c1=O)CCCC2 [Example 7-27]
97.6 | 45.1 | – | – | NNc1cccc2nc(CCCCN3CCN(c4ccc5ccccc5n4)CC3)n(N)c(=O)c12 [Example 4-28, 3-amino-5-hydrazino-2-[4-(4-quinolin-2-ylpiperazin-1-yl)butyl]-3H-quinazolin-4-one]
85 | 82.6 | – | – | Cc1sc2nc(SCCCN3CCN(c4nc5ccccc5n5cccc45)CC3)n(N)c(=O)c2c1C [Example 1-5, 3-amino-5,6-dimethyl-2-[3-(4-pyrrolo[1,2-a]quinoxalin-4-ylpiperazin-1-yl)propylthio]-3H-thieno[2,3-d]pyrimidin-4-one]
97.9 | 92.4 | – | – | CC1CCc2c(sc3nc(SCCCN4CCN(c5ccc6ccccc6n5)CC4)n(N)c(=O)c23)C1 (centres unmarked) [Example 1-31, 3-amino-7-methyl-2-[3-(4-quinolin-2-ylpiperazin-1-yl)propylthio]-5,6,7,8-tetrahydro-3H-benzo[4,5]thieno[2,3-d]pyrimidin-4-one]
93.4 | 78.8 | – | – | Cc1cc(N2CCN(CCCCc3nc4c(c(=O)n3Cc3ccccc3)CCCC4)CC2)nc2ccccc12 [Example 7-8, 3-benzyl-2-[4-[4-(4-methylquinolin-2-yl)piperazin-1-yl]butyl]-5,6,7,8-tetrahydro-3H-quinazolin-4-one]
96.1 | 92.5 | – | – | Nn1c(CCCCN2CCN(c3ccc4ccccc4n3)CC2)nc2c(c1=O)CC(O)CC2 (centres unmarked) [Example 4-70, 3-amino-6-hydroxy-2-[4-(4-quinolin-2-ylpiperazin-1-yl)butyl]-5,6,7,8-tetrahydro-3H-quinazolin-4-one]
57.7 | 10.6 | – | – | c1ccc(CO[C@@H]2C[C@H]3CN(c4nccc5sccc45)CCN3C2)cc1 [Production Example 117, 4-((7R,8aS)-7-benzyloxyoctahydropyrrolo[1,2-a]pyrazin-2-yl)thieno-[3,2-c]pyridine]
81.6 | 52.8 | – | – | Cc1cc(N2CCN(CCCSc3nc4sc5c(c4c(=O)[nH]3)CCNC5)CC2)nc2ccccc12 [Example 2-20, 2-[3-[4-(4-methylquinolin-2-yl)piperazin-1-yl]propylthio]-3,4,5,6,7,8-hexahydro-4-oxo-9-thia-1,3,7-triaza-9H-fluorene trihydrochloride]
94.3 | 87.8 | – | – | Cc1ccc2nc(CCCCN3CCN(c4ccc5ccccc5n4)CC3)n(N)c(=O)c2c1 [Example 4-20, 3-amino-6-methyl-2-[4-(4-quinolin-2-ylpiperazin-1-yl)butyl]-3H-quinazolin-4-one]
– | – | 58.2 | 93.9 | COc1cc(N2CCN(CCCCc3nc4ccccc4c(=O)n3N)CC2)nc2ccccc12 [Example 4-22, 3-amino-2-[4-(4-methoxyquinolin-2-yl)piperazin-1-yl]butyl-3H-quinazolin-4-one]
88.2 | 60.8 | – | – | Fc1ccc(COc2ccc3ccnc(N4CCNCC4)c3c2)cc1 [Production Example 98, 7-(4-fluorobenzyloxy)-1-piperazin-1-ylisoquinoline]

SMILES | inhibition at 0.1 µM [1] [%] | inhibition at 0.1 µM [2] [%] | Percent Inhibition (%) on Each Receptor's Binding at 10^−7M, 5-HT1A [1] [%] | Percent Inhibition (%) on Each Receptor's Binding at 10^−7M, 5-HT3 [2] [%]
c1cc2ccsc2c(N2CCN3CCCCC3C2)n1 (centres unmarked) [Production Example 120, 7-octahydropyrido[1,2-a]pyrazin-2-ylthieno[2,3-c]pyridine] | 81 | 99.4 | – | –
c1cc2sccc2c(N2CCN3CCCCC3C2)n1 (centres unmarked) [Production Example 121, 4-octahydropyrido[1,2-a]pyrazin-2-ylthieno[3,2-c]pyridine] | 69.3 | 85.6 | – | –
COc1ccc2ccnc(N3CCN4CCCCC4C3)c2c1 (centres unmarked) [Production Example 81, 7-methoxy-1-octahydropyrido[1,2-a]pyrazin-2-ylisoquinoline] | 95.8 | 74.4 | – | –
c1cc2ccoc2c(N2CCN3CCC[C@@H]3C2)n1 [Production Example 110, 7-((8aR)-octahydropyrrolo[1,2-a]pyrazin-2-yl)furo[2,3-c]pyridine] | 98.9 | 97.9 | – | –
c1cnc2c(N3CCN4CCC[C@H]4C3)nccc2c1 [Production Example 74, 8-((8aS)-octahydropyrrolo[1,2-a]pyrazin-2-yl)-1,7-naphthyridine] | 94.6 | 98.9 | – | –
CCN1CCN(c2nccc3ccsc23)CC1 [Production Example 17, 7-(4-ethylpiperazin-1-yl)-thieno[2,3-c]pyridine] | 83.6 | 82.9 | – | –
Fc1ccc2ccnc(N3CCNCC3)c2c1 [Production Example 63, 7-fluoro-1-piperazin-1-ylisoquinoline] | 80.4 | 96.8 | – | –
Clc1ccc2ccnc(N3CCN4CCC[C@@H]4C3)c2c1 [Production Example 76, 7-chloro-1-((8aR)-octahydropyrrolo[1,2-a]pyrazin-2-yl)isoquinoline] | 96.6 | 94.4 | – | –
